Assay results: patent US20150125889A1, “IN VITRO DETECTION OF MICROORGANISMS WITH AZOREDUCTASE ACTIVITY” (BIOMÉRIEUX, priority 2012, published 2015)

Assays:
Test in all cases: Reduction of azo substrates over 24 hours at 35° C., microtitration plate (Example 1)
Assay type in all cases: cell-based
Candida albicans = test system: Candida albicans; design: key to RED (substrate reduced or not): RED indicates whether the substrate is reduced (Y) or not (N); RED indicates whether the substrate is reduced (Y) or not (N); key to Co (growth, absorbance at 660 nm) / Decol (substrate decolourized, decrease in absorbance) / Fluo (fluorescence multiplied by 2 relative to substrate-free control): The symbol “+” means good growth/decolourization/significant increase in fluorescence; The symbol “+/−” means difficult growth; The symbol “−” means that there is no growth/decolourization/significant increase in fluorescence; settings: substrate 35 mg/l
Method in brief: (§1)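 Each strain grown in trypcase soya broth containing 35 mg/l azo substrate from a 0.5 McFarland inoculum, read at 35 °C over 24 h. Growth followed by A660; reduction scored as decolourization (falling absorbance) and/or fluorescence doubling versus substrate-free control. Results given as qualitative +, +/−, − and reduced Y/N.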

Cronobacter muytjensii = test system: Cronobacter muytjensii; design: key to RED (substrate reduced or not): RED indicates whether the substrate is reduced (Y) or not (N); RED indicates whether the substrate is reduced (Y) or not (N); key to Co (growth, absorbance at 660 nm) / Decol (substrate decolourized, decrease in absorbance) / Fluo (fluorescence multiplied by 2 relative to substrate-free control): The symbol “+” means good growth/decolourization/significant increase in fluorescence; The symbol “+/−” means difficult growth; The symbol “−” means that there is no growth/decolourization/significant increase in fluorescence; settings: E. muytjensii, substrate 35 mg/l
Method in brief: as §1

Staphylococcus aureus = test system: Staphylococcus aureus; design: key to RED (substrate reduced or not): RED indicates whether the substrate is reduced (Y) or not (N); RED indicates whether the substrate is reduced (Y) or not (N); key to Co (growth, absorbance at 660 nm) / Decol (substrate decolourized, decrease in absorbance) / Fluo (fluorescence multiplied by 2 relative to substrate-free control): The symbol “+” means good growth/decolourization/significant increase in fluorescence; The symbol “+/−” means difficult growth; The symbol “−” means that there is no growth/decolourization/significant increase in fluorescence; settings: S. aureus, substrate 35 mg/l
Method in brief: as §1

Escherichia coli = test system: Escherichia coli; design: key to RED (substrate reduced or not): RED indicates whether the substrate is reduced (Y) or not (N); RED indicates whether the substrate is reduced (Y) or not (N); key to Co (growth, absorbance at 660 nm) / Decol (substrate decolourized, decrease in absorbance) / Fluo (fluorescence multiplied by 2 relative to substrate-free control): The symbol “+” means good growth/decolourization/significant increase in fluorescence; The symbol “+/−” means difficult growth; The symbol “−” means that there is no growth/decolourization/significant increase in fluorescence; settings: E. coli, substrate 35 mg/l
Method in brief: as §1

Pseudomonas aeruginosa = test system: Pseudomonas aeruginosa; design: key to RED (substrate reduced or not): RED indicates whether the substrate is reduced (Y) or not (N); RED indicates whether the substrate is reduced (Y) or not (N); key to Co (growth, absorbance at 660 nm) / Decol (substrate decolourized, decrease in absorbance) / Fluo (fluorescence multiplied by 2 relative to substrate-free control): The symbol “+” means good growth/decolourization/significant increase in fluorescence; The symbol “+/−” means difficult growth; The symbol “−” means that there is no growth/decolourization/significant increase in fluorescence; settings: P. aeruginosa, substrate 35 mg/l
Method in brief: as §1

Enterococcus faecalis = test system: Enterococcus faecalis; design: key to RED (substrate reduced or not): RED indicates whether the substrate is reduced (Y) or not (N); RED indicates whether the substrate is reduced (Y) or not (N); key to Decol (substrate decolourized, decrease in absorbance) / Fluo (fluorescence multiplied by 2 relative to substrate-free control) / Co (growth, absorbance at 660 nm): The symbol “+” means good growth/decolourization/significant increase in fluorescence; The symbol “+/−” means difficult growth; The symbol “−” means that there is no growth/decolourization/significant increase in fluorescence; settings: E. faecalis, substrate 35 mg/l
Method in brief: as §1

Acinetobacter baumanii = test system: Acinetobacter baumanii; design: key to RED (substrate reduced or not): RED indicates whether the substrate is reduced (Y) or not (N); RED indicates whether the substrate is reduced (Y) or not (N); key to Decol (substrate decolourized, decrease in absorbance) / Fluo (fluorescence multiplied by 2 relative to substrate-free control) / Co (growth, absorbance at 660 nm): The symbol “+” means good growth/decolourization/significant increase in fluorescence; The symbol “+/−” means difficult growth; The symbol “−” means that there is no growth/decolourization/significant increase in fluorescence; settings: A. baumannii, substrate 35 mg/l
Method in brief: as §1

Row | SMILES | Co (growth, absorbance at 660 nm) (Candida albicans) | Decol (substrate decolourized, decrease in absorbance) (Candida albicans) | Fluo (fluorescence multiplied by 2 relative to substrate-free control) (Candida albicans) | RED (substrate reduced or not) (Candida albicans) | Co (growth, absorbance at 660 nm) (Cronobacter muytjensii) | Decol (substrate decolourized, decrease in absorbance) (Cronobacter muytjensii) | Fluo (fluorescence multiplied by 2 relative to substrate-free control) (Cronobacter muytjensii) | RED (substrate reduced or not) (Cronobacter muytjensii) | Co (growth, absorbance at 660 nm) (Staphylococcus aureus) | Decol (substrate decolourized, decrease in absorbance) (Staphylococcus aureus) | Fluo (fluorescence multiplied by 2 relative to substrate-free control) (Staphylococcus aureus) | RED (substrate reduced or not) (Staphylococcus aureus) | Co (growth, absorbance at 660 nm) (Escherichia coli) | Decol (substrate decolourized, decrease in absorbance) (Escherichia coli) | Fluo (fluorescence multiplied by 2 relative to substrate-free control) (Escherichia coli) | RED (substrate reduced or not) (Escherichia coli) | Co (growth, absorbance at 660 nm) (Pseudomonas aeruginosa) | Decol (substrate decolourized, decrease in absorbance) (Pseudomonas aeruginosa) | Fluo (fluorescence multiplied by 2 relative to substrate-free control) (Pseudomonas aeruginosa) | RED (substrate reduced or not) (Pseudomonas aeruginosa) | other results
1 | O=C(O)c1cc(/N=N/c2ccc(-c3nc4ccccc4s3)cc2)ccc1O [BF45, 2-Phenyl-benzothiazole-4′-azo-4″- hydroxybenzene-3″-carboxylic acid] | + | − | − | N | + | − | − | N | + | + | + | Y | + | − | + | Y | + | − | − | N | Co (growth, absorbance at 660 nm) (Enterococcus faecalis): +; Decol (substrate decolourized, decrease in absorbance) (Enterococcus faecalis): +; Fluo (fluorescence multiplied by 2 relative to substrate-free control) (Enterococcus faecalis): +; RED (substrate reduced or not) (Enterococcus faecalis): Y; Co (growth, absorbance at 660 nm) (Acinetobacter baumanii): +; Decol (substrate decolourized, decrease in absorbance) (Acinetobacter baumanii): −; Fluo (fluorescence multiplied by 2 relative to substrate-free control) (Acinetobacter baumanii): +; RED (substrate reduced or not) (Acinetobacter baumanii): Y
2 | CN(C)c1ccc(/N=N/c2ccccc2C(=O)O)cc1 [Methyl red] | + | + | + | Y | + | + | + | Y | + | + | + | Y | + | + | + | Y | + | +/− | + | Y | Co (growth, absorbance at 660 nm) (Enterococcus faecalis): +; Decol (substrate decolourized, decrease in absorbance) (Enterococcus faecalis): +; Fluo (fluorescence multiplied by 2 relative to substrate-free control) (Enterococcus faecalis): +; RED (substrate reduced or not) (Enterococcus faecalis): Y; Co (growth, absorbance at 660 nm) (Acinetobacter baumanii): +; Decol (substrate decolourized, decrease in absorbance) (Acinetobacter baumanii): +; Fluo (fluorescence multiplied by 2 relative to substrate-free control) (Acinetobacter baumanii): +; RED (substrate reduced or not) (Acinetobacter baumanii): Y
3 | CN(C)c1ccc(N=Nc2ccc(S(=O)(=O)[O-])cc2)cc1.[Na+] [Methyl orange] | + | − | − | N | + | − | − | N | + | − | − | N | + | − | − | N | + | − | − | N | Co (growth, absorbance at 660 nm) (Enterococcus faecalis): +; Decol (substrate decolourized, decrease in absorbance) (Enterococcus faecalis): +; Fluo (fluorescence multiplied by 2 relative to substrate-free control) (Enterococcus faecalis): +; RED (substrate reduced or not) (Enterococcus faecalis): Y; Co (growth, absorbance at 660 nm) (Acinetobacter baumanii): +; Decol (substrate decolourized, decrease in absorbance) (Acinetobacter baumanii): −; Fluo (fluorescence multiplied by 2 relative to substrate-free control) (Acinetobacter baumanii): −; RED (substrate reduced or not) (Acinetobacter baumanii): N
4 | O=C([O-])C1=NN(c2ccc(S(=O)(=O)[O-])cc2)C(=O)C1/N=N/c1ccc(S(=O)(=O)[O-])cc1.[Na+].[Na+].[Na+] (stereo not shown) [Tartrazine] | + | − | − | N | + | − | − | N | + | − | − | N | + | − | − | N | + | − | − | N | Co (growth, absorbance at 660 nm) (Enterococcus faecalis): +; Decol (substrate decolourized, decrease in absorbance) (Enterococcus faecalis): +; Fluo (fluorescence multiplied by 2 relative to substrate-free control) (Enterococcus faecalis): +/−; RED (substrate reduced or not) (Enterococcus faecalis): Y; Co (growth, absorbance at 660 nm) (Acinetobacter baumanii): +; Decol (substrate decolourized, decrease in absorbance) (Acinetobacter baumanii): −; Fluo (fluorescence multiplied by 2 relative to substrate-free control) (Acinetobacter baumanii): −; RED (substrate reduced or not) (Acinetobacter baumanii): N
